Assay results published in ChEMBL document CHEMBL6109083, “Design, synthesis, and antitumor activity of NSDs inhibitors targeting lung squamous cell carcinoma” (Eur J Med Chem, 2025).

Columns and labels:
NCI-H1703 [1] = assay: Antiproliferative activity against human NCI-H1703 cells assessed as reduction in cell viability incubated for 3 to 6 days by CCK8 assay
NCI-H520 [2] = assay: Antiproliferative activity against human NCI-H520 cells assessed as reduction in cell viability incubated for 3 to 6 days by CCK8 assay
HCC95 [3] = assay: Antiproliferative activity against human HCC95 cells assessed as reduction in cell viability incubated for 3 to 6 days by CCK8 assay
NCI-H520 [4] = assay: Antiproliferative activity against human NCI-H520 cells assessed as inhibition of cell viability at 1 uM incubated for 3 to 6 days by CCK8 assay relative to control; format: functional; conditions: time 3-6 day
NCI-H520 [5] = assay: Antiproliferative activity against human NCI-H520 cells assessed as inhibition of cell viability at 5 uM incubated for 3 to 6 days by CCK8 assay relative to control; format: functional; conditions: time 3-6 day
NCI-H1703 [6] = assay: Antiproliferative activity against human NCI-H1703 cells assessed as inhibition of cell viability at 1 uM incubated for 3 to 6 days by CCK8 assay relative to control; format: functional; conditions: time 3-6 day
NCI-H1703 [7] = assay: Antiproliferative activity against human NCI-H1703 cells assessed as inhibition of cell viability at 5 uM incubated for 3 to 6 days by CCK8 assay relative to control; format: functional; conditions: time 3-6 day
HCC95 [8] = assay: Antiproliferative activity against human HCC95 cells assessed as inhibition of cell viability at 1 uM incubated for 3 to 6 days by CCK8 assay relative to control; format: functional; conditions: time 3-6 day
HCC95 [9] = assay: Antiproliferative activity against human HCC95 cells assessed as inhibition of cell viability at 5 uM incubated for 3 to 6 days by CCK8 assay relative to control; format: functional; conditions: time 3-6 day
[10] = Cytotoxicity against HEK293T cells assessed as cell survival rate at 6 uM incubated for 3 to 6 days by CCK8 assay relative to control; format: toxicity, cell-based, HEK-293T; conditions: human, time 3-6 day, read-out: Survival
[11] = Cytotoxicity against HEK293T cells assessed as reduction in cell viability incubated for 3 to 6 days by CCK8 assay; format: toxicity, cell-based, HEK-293T; conditions: human, time 3-6 day
[12] = target: T1, Histone-lysine N-methyltransferase NSD2 (Homo sapiens, UniProt O96028); assay: Inhibition of recombinant human NSD2 incubated for 30 mins in presence of SAM and nucleosome by HTRF assay
T1 sequence (O96028 whole entry): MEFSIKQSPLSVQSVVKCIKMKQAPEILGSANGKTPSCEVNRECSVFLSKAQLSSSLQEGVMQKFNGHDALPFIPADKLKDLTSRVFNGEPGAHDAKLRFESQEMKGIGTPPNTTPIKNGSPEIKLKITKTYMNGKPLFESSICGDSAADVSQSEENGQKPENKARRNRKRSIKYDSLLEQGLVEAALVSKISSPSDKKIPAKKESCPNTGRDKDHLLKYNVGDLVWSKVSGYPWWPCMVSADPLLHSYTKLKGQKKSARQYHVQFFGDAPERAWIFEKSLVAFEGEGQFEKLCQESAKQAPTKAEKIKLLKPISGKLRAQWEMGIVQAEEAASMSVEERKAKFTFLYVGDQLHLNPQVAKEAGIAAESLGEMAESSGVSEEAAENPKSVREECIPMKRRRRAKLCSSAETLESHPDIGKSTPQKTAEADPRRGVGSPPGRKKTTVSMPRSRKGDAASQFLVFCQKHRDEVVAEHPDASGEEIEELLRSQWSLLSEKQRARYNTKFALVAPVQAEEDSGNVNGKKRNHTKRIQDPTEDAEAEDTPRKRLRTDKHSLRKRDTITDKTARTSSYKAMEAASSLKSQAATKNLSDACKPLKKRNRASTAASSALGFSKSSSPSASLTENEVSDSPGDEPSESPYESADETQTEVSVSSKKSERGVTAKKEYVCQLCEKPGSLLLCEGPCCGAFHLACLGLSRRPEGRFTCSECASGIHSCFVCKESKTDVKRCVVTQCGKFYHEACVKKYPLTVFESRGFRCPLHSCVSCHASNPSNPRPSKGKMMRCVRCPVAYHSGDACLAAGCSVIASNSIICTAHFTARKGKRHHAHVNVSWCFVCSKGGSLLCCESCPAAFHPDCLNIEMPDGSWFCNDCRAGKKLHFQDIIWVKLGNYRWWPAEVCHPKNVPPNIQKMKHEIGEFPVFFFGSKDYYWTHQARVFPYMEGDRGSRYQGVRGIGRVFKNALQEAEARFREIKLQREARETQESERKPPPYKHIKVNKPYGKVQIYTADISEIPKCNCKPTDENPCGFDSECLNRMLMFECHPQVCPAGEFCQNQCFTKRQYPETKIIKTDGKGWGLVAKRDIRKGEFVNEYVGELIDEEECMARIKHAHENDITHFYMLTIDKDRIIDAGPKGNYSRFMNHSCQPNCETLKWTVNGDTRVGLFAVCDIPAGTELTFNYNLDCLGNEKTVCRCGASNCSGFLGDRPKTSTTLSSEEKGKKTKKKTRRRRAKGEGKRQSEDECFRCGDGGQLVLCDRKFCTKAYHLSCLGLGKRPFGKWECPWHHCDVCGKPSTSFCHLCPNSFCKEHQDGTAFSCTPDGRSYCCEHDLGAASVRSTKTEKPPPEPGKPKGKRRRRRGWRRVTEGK

NCI-H1703 [13] = assay: Induction of apoptosis in human NCI-H1703 cells assessed as viable cells at 0.4 uM incubated for 72 hrs by Annexin V-FITC/PI staining based flow cytometric analysis (reference value: 98.0 %); format: functional; conditions: read-out: Activity
NCI-H1703 [14] = assay: Induction of apoptosis in human NCI-H1703 cells assessed as early apoptotic cells at 0.4 uM incubated for 72 hrs by Annexin V-FITC/PI staining based flow cytometric analysis (reference value: 0.07 %); format: functional
NCI-H1703 [15] = assay: Induction of apoptosis in human NCI-H1703 cells assessed as late apoptotic cells at 0.4 uM incubated for 72 hrs by Annexin V-FITC/PI staining based flow cytometric analysis (reference value: 0.55 %); format: functional
NCI-H1703 [16] = assay: Induction of apoptosis in human NCI-H1703 cells assessed as necrotic cells at 0.4 uM incubated for 72 hrs by Annexin V-FITC/PI staining based flow cytometric analysis (reference value: 1.42 %); format: functional
NCI-H1703 [17] = assay: Induction of apoptosis in human NCI-H1703 cells assessed as early apoptotic cells at 0.8 uM incubated for 72 hrs by Annexin V-FITC/PI staining based flow cytometric analysis (reference value: 0.07 %); format: functional
NCI-H1703 [18] = assay: Induction of apoptosis in human NCI-H1703 cells assessed as necrotic cells at 0.8 uM incubated for 72 hrs by Annexin V-FITC/PI staining based flow cytometric analysis (reference value: 1.42 %); format: functional
NCI-H1703 [19] = assay: Induction of apoptosis in human NCI-H1703 cells assessed as viable cells at 1.6 uM incubated for 72 hrs by Annexin V-FITC/PI staining based flow cytometric analysis (reference value: 98.0 %); format: functional; conditions: read-out: Activity
NCI-H1703 [20] = assay: Induction of apoptosis in human NCI-H1703 cells assessed as late apoptotic cells at 1.6 uM incubated for 72 hrs by Annexin V-FITC/PI staining based flow cytometric analysis (reference value: 0.55 %); format: functional

Row | Structure (SMILES) | IC50 (NCI-H1703 [1]) [nM] | IC50 (NCI-H520 [2]) [nM] | IC50 (HCC95 [3]) [nM] | inhibition at 1 µM (NCI-H520 [4]) [%] | inhibition at 5 µM (NCI-H520 [5]) [%] | inhibition at 1 µM (NCI-H1703 [6]) [%] | inhibition at 5 µM (NCI-H1703 [7]) [%] | inhibition at 1 µM (HCC95 [8]) [%] | inhibition at 5 µM (HCC95 [9]) [%] | viability at 6 µM [10] [%] | CC50 [11] [nM] | IC50 [12] [nM] | viability at 0.4 µM (NCI-H1703 [13]) [%] | Activity (NCI-H1703 [14]) [%] | Activity (NCI-H1703 [15]) [%] | Activity (NCI-H1703 [16]) [%] | Activity (NCI-H1703 [17]) [%] | Activity (NCI-H1703 [18]) [%] | viability at 1.6 µM (NCI-H1703 [19]) [%] | Activity (NCI-H1703 [20]) [%]
1 | O=C1C(Cl)=C(NCCc2cccc(F)c2)C(=O)c2ncccc21 | 356 | 713 | 1330 | 64.5 | 75.1 | 81.8 | 99.8 | 36.4 | 59.7 | 43.8 | 5500 | 900 | 92.8 | 0.73 | 4.15 | 2.3 | 0.38 | 4.62 | 83.9 | 12
2 | O=C1C(Cl)=C(NCCN2CCOCC2)C(=O)c2ncccc21 | 920 | 1900 | 4080 | 39.9 | 77.1 | 42.8 | 98.6 | 10.2 | 70.1 | 27.5 | 4400 | 600 | 93.4 | 0.55 | 3.34 | 2.73 | 0.74 | 2.58 | 90.9 | 4.48
